Literature values in patent US20050171374A1, “Preparation of levulinic acid esters from alpha-angelica lactone and olefins; use of ester compositions as fuel additives” (priority 2004, published 2005).
Where a name gives a salt, the structure may show the parent alone.

Experiments:
[1] = reference [1] DIPPR
[2] = reference [1] DIPPR; remark: listed apart in the source
[3] = for Lower Heating Value [1]: reference [1] DIPPR, cells marked [3] from DOE/EIA report; for Lower Heating Value [2]: reference [2] Walters, molar group contributions

| Structure (SMILES) | Flash Point [1] [1] [°C] | Vapor Press. (100° F.) [1] [2] [KPa] | Lower Heating Value [2] [3] [Btu/lb] | Lower Heating Value [1] [3] |
| --- | --- | --- | --- | --- |
| CCCCCOC=O [Amyl Formate Ester] | 26.85 | 2.5 | 13905 | 12274 Btu/lb |
| CCO [Ethanol, reference compound] | 12.85 | 16 | 12477 | 11500[3] Btu/lb |
| CCOC=O [Ethyl Formate] | −20 | 55 | 10139 | 8751 Btu/lb |
| CC(C)COC=O [Isobutyl Formate] | 3.85 | 10.2 | 12797 | 11377 Btu/lb |
| CC(C)OC=O [Isopropyl Formate] | −6 | – | 12304 | – |
| COC(C)(C)C [MTBE, methyl tertiary-butyl ether, reference compound] | −28.15 | 55 | 16578 | 15100[3] Btu/lb |
| CO [Methanol, reference compound] | 10.85 | 32 | 8950 | 8570 Btu/lb |
| COC=O [Methyl Formate] | −19.15 | 126.2 | 7711 | 6393 Btu/lb |
| CCCCOC=O [N-Butyl Formate] | 18 | 7.4 | 15175 | 11415 Btu/lb |
| CCCOC=O [N-Propyl Formate] | −3.15 | 19.9 | 11792 | 9964 Btu/lb |
| CCC(C)OC=O (stereo not shown) [Sec-Butyl Formate] | 0.85 | 12.1 | 10617 | – |
| CC(C)(C)OC=O [Tert-Butyl Formate] | −9 | 19.8 | 12873 | 11277 Btu/lb |
| CC(=O)CCC(=O)OC(C)(C)C [Tert-Butyl Levulinate] | – | – | 12010 | – |

Now from value to molecule, other results behind:

| Flash Point [1] [1] [°C] | Vapor Press. (100° F.) [1] [2] [KPa] | Lower Heating Value [2] [3] [Btu/lb] | Structure (SMILES) | Lower Heating Value [1] [3] |
| --- | --- | --- | --- | --- |
| – | – | 14909 | CCCCCOC(=O)CCC(C)=O [Amyl Levulinate] | – |
| – | – | 11722 | CCOC(=O)CCC(C)=O [Ethyl Levulinate] | – |
| – | – | 13605 | CC(=O)CCC(=O)OCCC(C)C [Isoamyl Levulinate] | – |
| – | – | 13041 | CC(=O)CCC(=O)OCC(C)C [Isobutyl Levulinate] | – |
| – | – | 10969 | CC(=O)CCC(=O)OC(C)C [Isopropyl Levulinate] | – |
| – | – | 10773 | COC(=O)CCC(C)=O [Methyl Levulinate] | – |
| – | – | 14451 | CCCCOC(=O)CCC(C)=O [N-Butyl Levulinate] | – |
| – | – | 13912 | CCCOC(=O)CCC(C)=O [N-Propyl Levulinate] | – |
| – | – | 11748 | CCC(C)OC(=O)CCC(C)=O (stereo not shown) [Sec-Butyl Levulinate] | – |
